This is an account of results in patent US11938190B2, “Herbal extracts for treatment of herpesvirus infections” (KAMEDIS LTD., priority 2018, dated 2024).

In the assay the test system is Herpes Simplex Virus type 1 (HSV-1). Briefly: microbe, parasite or virus in culture. It is filed as cell-based. The following applies: Human alphaherpesvirus 1; Example 2; acyclovir dose-response curve; EYFP-HSV-1, Vero cells.

SMILES strings stand for the structures. ≈ marks a conversion by molar mass, not a printed value.

For the compound `Nc1nc2c(ncn2COCCO)c(=O)[nH]1` [Acyclovir], the IC50 (commonly the concentration at which inhibition is half-maximal) was found to be 0.126 ± 0.014 µg/mL (≈ 0.559 µM).
